In US7423153B2, “Crystalline forms of gatifloxacin” (Teva Pharmaceutical Industries Ltd., priority 2002, dated 2008):

What was measured:
[1] = Interconversion of crystalline forms by thermal treatment (XRD before and after heating); format: physicochemical
Protocol: (§1) X-ray reflections reported herein were determined by the powder diffraction technique (PXRD). X-ray powder diffraction analysis was performed using a Scintag powder diffractometer with variable goniometer, a Cu source, and a solid state detector. A standard round aluminum sample holder with zero background quartz plate was used. Samples were scanned from 2° to 40° 2θ at 3° per minute. Reflections are reported as peak maxima in the Intensity vs. 2θ plots, and are subject to the normal experimental error (uncertainty) of ±0.2°. Wet samples were promptly analyzed “as is,” i.e., without drying or grinding prior to the analysis.
Approximately 200 mg of several of the novel crystalline forms of the present invention, prepared as described in the foregoing examples, and several of the prior-art crystalline forms were subjected to various thermal treatments. The treatments and the results are described in Table II below
200 mg of gatifloxacin form E1 were heated to 100° C. for 1 hour. The XRD of the resulting sample was that of the omega form.

[2] = as reported in U.S. Pat. No. 5,880,283; cited from earlier work
[3] = Exposure to 80% relative humidity for 1 week (XRD, TGA, KF); format: physicochemical; conditions: for crystal structure of resulting sample (XRD): 80% relative humidity for 1 week
Protocol: as §1
Thermogravimetric analysis (TGA) was performed using a Mettler TG50 thermobalance. Samples of 7 to 15 milligrams were analyzed at a heating rate of 10° C. per minute in the temperature range between about 25° C. and about 200° C.
The water content (wt-% water) of crystalline forms of gatifloxacin reported herein was determined by the Karl-Fisher method. Water content of solutions was likewise determined by the Karl-Fisher method.
200 mg of gatifloxacin form J were put in 80% relative humidity for 1 week. The resulting sample was analyzed by XRD, TGA and KF.
200 mg of gatifloxacin omega form were put in 80% relative humidity for 1 week, and then analyzed by XRD and by TGA.

[4] = Stability of E1 in formulations; format: physicochemical; conditions: in formulations at 30° C.
Source text: The pharmaceutical composition can be in the form of a solid oral dosage form (e.g., compressed tablets or capsules), or it can be in the form of a liquid oral dosage form (e.g., a solution or oral suspension).

[5] = among forms of U.S. Pat. No. 6,413,969, cited from earlier work
[6] = Stability of E1 dihydrate against transformation to sesquihydrate on storage (PXRD); format: physicochemical
Protocol: A suitable method to determine the presence of gatifloxacin sesquihydrate in gatifloxacin form E1 is x-ray powder diffraction. Determination of presence of sesquihydrate in form E1 is feasible in the region 7° to 9° 2θ, where a peak of sesquihydrate appears at about 7.8° 2θ.
Moreover, the dihydrate of the present invention is stable against transformation to the sesquihydrate when exposed at ambient temperature to 60% relative humidity for one week.
The E1 dihydrate of the present invention is stable against transformation to sesquihydrate when stored at 30° C. and 60% relative humidity for 3 months.

[7] = after 80% relative humidity for 1 week

COc1c(N2CCNC(C)C2)c(F)cc2c(=O)c(C(=O)O)cn(C3CC3)c12 (stereo not shown) [hemihydrate, gatifloxacin]
form Obtained after heating (XRD) ([1]; 120° C., 1 h): T2RP
hygroscopicity [2]: hygroscopic

COc1c(N2CCNC(C)C2)c(F)cc2c(=O)c(C(=O)O)cn(C3CC3)c12 (stereo not shown) [omega form, gatifloxacin]
crystal structure of resulting sample (XRD) [3]: sesquihydrate
LOD of resulting sample (TGA) [3, 7]: 7.7%

COc1c(N2CCNC(C)C2)c(F)cc2c(=O)c(C(=O)O)cn(C3CC3)c12 (stereo not shown) [form J, gatifloxacin]
form Obtained after heating (XRD) ([1]; 120° C., 1 h): omega
crystal structure of resulting sample (XRD) [3]: sesquihydrate
KF water content of resulting sample [3, 7]: 6.6%
LOD of resulting sample (TGA) [3, 7]: 7.8%

COc1c(N2CCNC(C)C2)c(F)cc2c(=O)c(C(=O)O)cn(C3CC3)c12 (stereo not shown) [form E1, gatifloxacin]
time stable in formulations [4]: at least 3 months
form Obtained after heating (XRD) ([1]; 100° C. for 1 hour): omega form

COc1c(N2CCNC(C)C2)c(F)cc2c(=O)c(C(=O)O)cn(C3CC3)c12 (stereo not shown) [sesquihydrate, gatifloxacin]
form Obtained after heating (XRD) ([1]; 120° C., 1 h): T2RP + omega
hygroscopicity [2]: less hygroscopic
stability in manufacturing [2]: more stable in manufacturing

COc1c(N2CCNC(C)C2)c(F)cc2c(=O)c(C(=O)O)cn(C3CC3)c12 (stereo not shown) [pentahydrate, gatifloxacin]
thermodynamic stability [5]: most thermodynamically stable form
aqueous solubility ([5]; room temperature): lowest aqueous solubility

COc1c(N2CCNC(C)C2)c(F)cc2c(=O)c(C(=O)O)cn(C3CC3)c12 (stereo not shown) [T1RP, gatifloxacin]
form Obtained after heating (XRD) ([1]; 120° C., 1 h): Hemihydrate

COc1c(N2CCNC(C)C2)c(F)cc2c(=O)c(C(=O)O)cn(C3CC3)c12 (stereo not shown) [form G, gatifloxacin]
form Obtained after heating (XRD) ([1]; 120° C., 1 h): Omega^1.

COc1c(N2CCNC(C)C2)c(F)cc2c(=O)c(C(=O)O)cn(C3CC3)c12 (stereo not shown) [E1 dihydrate, gatifloxacin]
stability against transformation to the sesquihydrate ([6]; ambient temperature, 60% relative humidity, one week, PXRD): stable
stability against transformation to sesquihydrate ([6]; stored at 30° C. and 60% relative humidity for 3 months): stable
